Experimental data: patent publication US7361676B2, “Solid preparation containing single crystal form” (Teijin Limited, priority 2002, dated 2008)

How the values were obtained:
xanthine oxidase = xanthine oxidase (Homo sapiens, UniProt P47989); conditions: as described in WO92/09279; cited from earlier work
[1] = Intrinsic dissolution rate (USP 24 <1087>); type: physicochemical; conditions: pellets, second fluid of the disintegration test of Japanese Pharmacopoeia, 50 rpm
Protocol: The dissolution rate was measured according to USP 24, <1087>Intrinsic Dissolution. Specifically, the measurement was carried out as follows:
50 mg each of crystals powdered lightly in an agate mortar was set between plates, and a pressure of 754 kgf/cm^2 was applied thereto for one minute to produce pellets. As the testing solution, 900 mL of the second fluid of the disintegration test of Japanese Pharmacopoeia was used and the test was carried out at 50 rpm using the dissolution apparatus produced by Vankel. Subsequently, the testing liquid was filtered through a filter and the resultant, used as the sample solution, was tested with respect to a standard solution by a spectrophotometry (wavelength of 317 nm). The results are shown in Table 2, in which the order of the dissolution rate of the six crystals is as follows: E>A>B>D>G>C.

[2] = Physical stability of drug substance crystals at 40° C./75% RH (HPLC degradant, XRD/TG transformation); type: physicochemical; conditions: for Transformation of crystal form on storage: 40° C./75% RH, storage for three months
Protocol: Each of the drug substances (crystals A, B, C, D, E and G) of 2-(3-cyano-4-isobutyloxyphenyl)-4-methyl-5-thiazolecarboxylic acid was tested in bottles with and without closure under the conditions of 40° C./75% RH. Any degradant was detected by a HPLC. Their transformation was detected by an X-ray powder diffraction pattern and by a thermal mass measurement method, and the 50% transform time was determined. There was no degradant for all of the six crystal forms.
For the above HPLC, Model 2690 produced by Waters was adopted, using an ODS column with a measured wave length of 217 nm at a predetermined temperature around 40° C.
For the above X-ray powder diffraction, Model XRD-6000 of Shimadzu Corp. was used.
For the above heat mass measurement, Model TGA7, Pyris1 produced by Perkin Elmer was used at a temperature rising speed of 40° C./min.

[3] = as described in WO99/65885; cited from earlier work
[4] = Pulverized particle size by image analysis; type: physicochemical
Protocol: Plain tablets were prepared by the method same as that of Example 1 except that particles (Particles 1˜4) shown in Table 7, with crystal A and with four different kinds of average particle sizes, were used as 2-(3-cyano-4-isobutyloxyphenyl)-4-methyl-5-thiazolecarboxylic acid. The obtained plain tablets were coated with coating liquid comprising purified water, polyethylene glycol and hydroxypropylmethyl cellulose by a coating machine (High Coater HCT-30, Freund Ind.).

[5] = 40° C./75% RH with closure, analysis XRD or TG
[6] = 40° C./75% RH without closure, analysis XRD or TG

xanthine oxidase, sequence (P47989 whole entry, species assumed): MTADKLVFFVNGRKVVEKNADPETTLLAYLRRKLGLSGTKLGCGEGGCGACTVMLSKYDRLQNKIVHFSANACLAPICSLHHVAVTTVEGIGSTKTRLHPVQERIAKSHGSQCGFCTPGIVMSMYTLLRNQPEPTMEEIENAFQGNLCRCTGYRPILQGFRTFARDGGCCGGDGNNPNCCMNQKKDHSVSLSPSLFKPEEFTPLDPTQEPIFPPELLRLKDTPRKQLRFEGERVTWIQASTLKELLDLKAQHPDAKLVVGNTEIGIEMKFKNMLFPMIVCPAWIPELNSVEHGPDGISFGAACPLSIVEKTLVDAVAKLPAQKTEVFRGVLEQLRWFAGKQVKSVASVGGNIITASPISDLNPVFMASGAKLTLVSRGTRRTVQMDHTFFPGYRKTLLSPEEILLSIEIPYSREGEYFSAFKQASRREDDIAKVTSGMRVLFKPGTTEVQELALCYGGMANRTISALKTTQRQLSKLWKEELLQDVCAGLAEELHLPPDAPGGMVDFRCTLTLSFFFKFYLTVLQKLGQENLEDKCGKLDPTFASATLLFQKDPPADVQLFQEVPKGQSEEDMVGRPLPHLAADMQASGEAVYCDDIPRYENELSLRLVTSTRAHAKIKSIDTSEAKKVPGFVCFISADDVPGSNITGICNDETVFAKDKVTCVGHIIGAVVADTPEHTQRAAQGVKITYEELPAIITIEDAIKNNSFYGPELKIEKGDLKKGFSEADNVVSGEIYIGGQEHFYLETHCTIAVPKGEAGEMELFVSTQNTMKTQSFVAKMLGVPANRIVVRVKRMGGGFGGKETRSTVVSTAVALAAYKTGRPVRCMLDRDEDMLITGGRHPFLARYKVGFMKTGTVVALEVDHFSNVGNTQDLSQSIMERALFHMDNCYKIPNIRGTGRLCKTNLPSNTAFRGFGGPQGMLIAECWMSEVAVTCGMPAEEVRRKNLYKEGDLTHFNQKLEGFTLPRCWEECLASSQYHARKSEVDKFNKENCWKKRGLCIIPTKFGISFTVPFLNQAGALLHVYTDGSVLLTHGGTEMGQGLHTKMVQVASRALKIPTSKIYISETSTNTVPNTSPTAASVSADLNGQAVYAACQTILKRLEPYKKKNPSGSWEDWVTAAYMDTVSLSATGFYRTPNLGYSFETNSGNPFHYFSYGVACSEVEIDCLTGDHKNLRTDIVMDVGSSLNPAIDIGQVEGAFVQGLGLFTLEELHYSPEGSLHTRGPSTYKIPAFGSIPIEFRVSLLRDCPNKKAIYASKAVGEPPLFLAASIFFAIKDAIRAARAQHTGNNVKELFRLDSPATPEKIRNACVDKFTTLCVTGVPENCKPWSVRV

Row | Structure (SMILES) | Activity for inhibiting xanthine oxidase (xanthine oxidase) | Intrinsic rate [1] | 50% Transform time [2, 5] | 50% Transform time [2, 6] | Transformation of crystal form on storage [2] | Retention of a crystal form in long term storage [3] | Pulverized particle size, 95% cumulative diameter [4] | Pulverized particle size, average particle diameter [4] | 50% Transform time ([2]; 40° C./75% RH without closure, analysis XRD)
1 | Cc1nc(-c2ccc(OCC(C)C)c(C#N)c2)sc1C(=O)O [2-(3-cyano-4-isobutyloxyphenyl)-4-methyl-5-thiazolecarboxylic acid] | strong activity |  |  |  |  |  |  |  | 
2 | Cc1nc(-c2ccc(OCC(C)C)c(C#N)c2)sc1C(=O)O [Crystal B, 2-(3-cyano-4-isobutyloxyphenyl)-4-methyl-5-thiazolecarboxylic acid] |  | 0.1242 mg/cm^2/min | 5 days | 0.583 days | transformation of crystals B, D and E was detected |  |  |  | 
3 | Cc1nc(-c2ccc(OCC(C)C)c(C#N)c2)sc1C(=O)O [Crystal G, 2-(3-cyano-4-isobutyloxyphenyl)-4-methyl-5-thiazolecarboxylic acid] |  | 0.0967 mg/cm^2/min | (Not changed) | (Not changed) | stable | useful in view of retention of a crystal form in long term storage |  |  | 
4 | Cc1nc(-c2ccc(OCC(C)C)c(C#N)c2)sc1C(=O)O [Crystal C, 2-(3-cyano-4-isobutyloxyphenyl)-4-methyl-5-thiazolecarboxylic acid] |  | 0.0694 mg/cm^2/min | (Not changed) | (Not changed) | stable | useful in view of retention of a crystal form in long term storage |  |  | 
5 | Cc1nc(-c2ccc(OCC(C)C)c(C#N)c2)sc1C(=O)O [Particle 4, 2-(3-cyano-4-isobutyloxyphenyl)-4-methyl-5-thiazolecarboxylic acid] |  |  |  |  |  |  | 140.8 μm | 48.6 μm | 
6 | Cc1nc(-c2ccc(OCC(C)C)c(C#N)c2)sc1C(=O)O [Particle 3, 2-(3-cyano-4-isobutyloxyphenyl)-4-methyl-5-thiazolecarboxylic acid] |  |  |  |  |  |  | 74.7 μm | 26.2 μm | 
7 | Cc1nc(-c2ccc(OCC(C)C)c(C#N)c2)sc1C(=O)O [Crystal E, 2-(3-cyano-4-isobutyloxyphenyl)-4-methyl-5-thiazolecarboxylic acid] |  | 0.1874 mg/cm^2/min | 55 days |  | transformation of crystals B, D and E was detected |  |  |  | 19 days
8 | Cc1nc(-c2ccc(OCC(C)C)c(C#N)c2)sc1C(=O)O [Particle 1, 2-(3-cyano-4-isobutyloxyphenyl)-4-methyl-5-thiazolecarboxylic acid] |  |  |  |  |  |  | 5.6 μm | 3.5 μm | 
9 | Cc1nc(-c2ccc(OCC(C)C)c(C#N)c2)sc1C(=O)O [Particle 2, 2-(3-cyano-4-isobutyloxyphenyl)-4-methyl-5-thiazolecarboxylic acid] |  |  |  |  |  |  | 29.5 μm | 12.9 μm | 
10 | Cc1nc(-c2ccc(OCC(C)C)c(C#N)c2)sc1C(=O)O [Crystal D, 2-(3-cyano-4-isobutyloxyphenyl)-4-methyl-5-thiazolecarboxylic acid] |  | 0.1092 mg/cm^2/min | 17 days | 0.0104 days | transformation of crystals B, D and E was detected |  |  |  | 
11 | Cc1nc(-c2ccc(OCC(C)C)c(C#N)c2)sc1C(=O)O [Crystal A, 2-(3-cyano-4-isobutyloxyphenyl)-4-methyl-5-thiazolecarboxylic acid] |  | 0.1434 mg/cm^2/min | (Not changed) | (Not changed) | stable | useful in view of retention of a crystal form in long term storage |  |  | 
